Values of other authors as cited in patent US20200129637A1, “COMBINATION THERAPY WITH AN ANTI-AXL ANTIBODY-DRUG CONJUGATE” (ADC Therapeutics SA, priority 2017, published 2020).

Experiments:
[1] = test system: chronic lymphocytic leukaemia cells
AXL [2] = test system: AXL
AXL [3] = conditions: incubation of tumor cells with MEKi

| Compound | ERCC1 transcription [1] | Efficiency of the homologous recombination repair machinery (AXL [2]) | Expression of DNA repair genes (AXL [2]) | AXL on the membrane of tumor cells (AXL [3]) |
| --- | --- | --- | --- | --- |
| Fludarabine | suppress ERCC1 transcription | – | – | – |
| Nc1nc(Nc2ccc3c(c2)CC[C@@H](N2CCCC2)CC3)nn1-c1cc2c(nn1)-c1ccccc1CCC2 [BGB324] | – | diminish the efficiency | decrease expression of DNA repair genes | – |
| O=C(NOC[C@H](O)CO)c1ccc(F)c(F)c1Nc1ccc(I)cc1F [PD325901] | – | – | – | strong accumulation of AXL |
| CN1CCN(Cc2ccc(Nc3ncc(Cl)c(Nc4ccccc4S(=O)(=O)N(C)C)n3)cc2)CC1 [TP0903] | – | diminish the efficiency | decrease expression of DNA repair genes | – |
| N#CC(=C(/N)Sc1ccccc1N)/C(C#N)=C(\N)Sc1ccccc1N [U0126] | – | – | – | strong accumulation of AXL |
